In PMC2196011 (The Journal of Experimental Medicine, 2002):

Target: T1, GST-PfNSMase (PfNSM product; plasmodial SM/LCPL-PLC) (Plasmodium falciparum, UniProt Q8WSF5)
T1 sequence (Q8WSF5 1-393): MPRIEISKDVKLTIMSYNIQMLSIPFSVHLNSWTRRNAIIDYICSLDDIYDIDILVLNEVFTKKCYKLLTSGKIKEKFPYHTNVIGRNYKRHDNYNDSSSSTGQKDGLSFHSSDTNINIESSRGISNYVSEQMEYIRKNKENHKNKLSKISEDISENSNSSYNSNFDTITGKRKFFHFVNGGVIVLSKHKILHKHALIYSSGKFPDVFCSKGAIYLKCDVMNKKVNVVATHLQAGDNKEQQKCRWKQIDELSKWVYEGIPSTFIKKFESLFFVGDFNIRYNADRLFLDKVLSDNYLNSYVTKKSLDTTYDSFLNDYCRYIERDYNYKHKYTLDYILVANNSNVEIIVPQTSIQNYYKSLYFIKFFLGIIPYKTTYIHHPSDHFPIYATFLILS
Assay: competition of […]lysoPtdCho hydrolysis, E. coli membrane fraction
Assay type: biochemical
Settings: 10 μM [palmitoyl-1-14C]lysoPtdCho; detergent-free; 10 mM MgCl2; pH 7.5; 37°C

| Compound | % of control activity |
| --- | --- |
| CCCCCCCCCCCCCCCCOC[C@@H](O)COP(=O)([O-])OCC[N+](C)(C)C [lysoPAF] | The activity was moderately competed by PAF and lysoPAF |
| CCCCCCCCCCCCC/C=C/[C@@H](O)[C@@H](N)COP(=O)([O-])OCC[N+](C)(C)C [sphingosylphosphocholine] | lysoPtdCho was strongly competed by sphingosylphosphocholine |
